Test system: normal human dermal fibroblasts (NHDF)
Assay: Gene expression in NHDF, full transcriptome analysis with Affymetrix U219 microarray
Format: cell-based
Conditions: NHDF

N[C@@H](CCCCNCC(F)(F)[C@]1(O)O[C@H](CO)[C@H](O)[C@H](O)[C@H]1O)C(=O)O [Compound 3]
effect of treatment of NHDF on lipid synthesis (transcriptional): up regulation of lipids synthesis, including fatty acids, cholesterol or ceramides
Fold change, ACOT1///ACOT2 (10 mg/ml, 24 h, vs control): 2.02
Fold change, APOD (10 mg/ml, 24 h, vs control): 0.44
Fold change, DHCR7 (10 mg/ml, 24 h, vs control): 2.95
Fold change, FADS2 (10 mg/ml, 24 h, vs control): 2.20
Fold change, GBAP1 (10 mg/ml, 24 h, vs control): 2.45
Fold change, HACD1 (10 mg/ml, 24 h, vs control): 2.63
Fold change, HMGCS1 (10 mg/ml, 24 h, vs control): 2.18
Fold change, LRP8 (10 mg/ml, 24 h, vs control): 2.98
Fold change, MVD (10 mg/ml, 24 h, vs control): 2.80
Fold change, NCOR1 (10 mg/ml, 24 h, vs control): 0.44
Fold change, NEU1 (10 mg/ml, 24 h, vs control): 3.17
Fold change, NPC1 (10 mg/ml, 24 h, vs control): 2.45
Fold change, PHLDB2 (10 mg/ml, 24 h, vs control): 2.14
Fold change, PHYH (10 mg/ml, 24 h, vs control): 2.37
Fold change, PLA2G15 (10 mg/ml, 24 h, vs control): 2.01
Fold change, PLA2G16 (10 mg/ml, 24 h, vs control): 2.30
Fold change, PRKAB2 (10 mg/ml, 24 h, vs control): 0.35
Fold change, PTGDS (10 mg/ml, 24 h, vs control): 2.50
Fold change, SOAT1 (10 mg/ml, 24 h, vs control): 2.08
Fold change, SPHK1 (10 mg/ml, 24 h, vs control): 2.18
Fold change, SREBF1 (10 mg/ml, 24 h, vs control): 2.16
Fold change, TXNRD1 (10 mg/ml, 24 h, vs control): 2.22
Fold change, VAC14 (10 mg/ml, 24 h, vs control): 2.10
Fold change, SCD (10 mg/ml, 24 h, vs control, Affymetrix probe set 11715561_s_at): 4.60
Fold change, SCD (10 mg/ml, 24 h, vs control, Affymetrix probe set 11715562_x_at): 4.82
Fold change, SCD (10 mg/ml, 24 h, vs control, Affymetrix probe set 11715563_s_at): 4.79
Fold change, G6PD (10 mg/ml, 24 h, vs control, Affymetrix probe set 11716292_a_at): 2.00
Fold change, G6PD (10 mg/ml, 24 h, vs control, Affymetrix probe set 11716293_x_at): 2.04
Fold change, INSIG1 (10 mg/ml, 24 h, vs control, Affymetrix probe set 11716338_a_at): 2.36
Fold change, INSIG1 (10 mg/ml, 24 h, vs control, Affymetrix probe set 11716339_a_at): 2.78
Fold change, PPT1 (10 mg/ml, 24 h, vs control, Affymetrix probe set 11716533_a_at): 2.40
Fold change, LSS (10 mg/ml, 24 h, vs control, Affymetrix probe set 11717620_a_at): 2.41
Fold change, EBP (10 mg/ml, 24 h, vs control, Affymetrix probe set 11717859_a_at): 2.52
Fold change, GBA///GBAP1 (10 mg/ml, 24 h, vs control, Affymetrix probe set 11719908_a_at): 2.30
Fold change, GM2A (10 mg/ml, 24 h, vs control, Affymetrix probe set 11719921_s_at): 2.39
Fold change, GM2A (10 mg/ml, 24 h, vs control, Affymetrix probe set 11719923_at): 2.09
Fold change, HSD17B14 (10 mg/ml, 24 h, vs control, Affymetrix probe set 11720588_a_at): 2.17
Fold change, SERINC2 (10 mg/ml, 24 h, vs control, Affymetrix probe set 11721046_a_at): 2.54
Fold change, TPP1 (10 mg/ml, 24 h, vs control, Affymetrix probe set 11725032_a_at): 2.23
Fold change, ME1 (10 mg/ml, 24 h, vs control, Affymetrix probe set 11726265_at): 2.41
Fold change, LSS (10 mg/ml, 24 h, vs control, Affymetrix probe set 11731324_a_at): 3.12
Fold change, GBA///GBAP1 (10 mg/ml, 24 h, vs control, Affymetrix probe set 11736100_a_at): 2.69
Fold change, CHKA (10 mg/ml, 24 h, vs control, Affymetrix probe set 11736285_a_at): 2.53
Fold change, CHKA (10 mg/ml, 24 h, vs control, Affymetrix probe set 11736286_a_at): 2.73
Fold change, ASAH1 (10 mg/ml, 24 h, vs control, Affymetrix probe set 11740582_a_at): 2.18
Fold change, PPT1 (10 mg/ml, 24 h, vs control, Affymetrix probe set 11742107_a_at): 2.25
Fold change, ASAH1 (10 mg/ml, 24 h, vs control, Affymetrix probe set 11743547_a_at): 2.16
Fold change, PCYT2 (10 mg/ml, 24 h, vs control, Affymetrix probe set 11744044_s_at): 2.15
Fold change, FADS1 (10 mg/ml, 24 h, vs control, Affymetrix probe set 11745459_a_at): 3.04
Fold change, LPCAT3 (10 mg/ml, 24 h, vs control, Affymetrix probe set 11746281_a_at): 2.48
Fold change, LDLR (10 mg/ml, 24 h, vs control, Affymetrix probe set 11746974_a_at): 2.37
Fold change, GM2A (10 mg/ml, 24 h, vs control, Affymetrix probe set 11747178_x_at): 2.24
Fold change, PCYT2 (10 mg/ml, 24 h, vs control, Affymetrix probe set 11747322_s_at): 2.72
Fold change, LDLR (10 mg/ml, 24 h, vs control, Affymetrix probe set 11748045_x_at): 2.10
Fold change, SERINC2 (10 mg/ml, 24 h, vs control, Affymetrix probe set 11748053_x_at): 2.92
Fold change, TM7SF2 (10 mg/ml, 24 h, vs control, Affymetrix probe set 11748279_s_at): 2.25
Fold change, GBA///GBAP1 (10 mg/ml, 24 h, vs control, Affymetrix probe set 11748292_a_at): 2.58
Fold change, TPP1 (10 mg/ml, 24 h, vs control, Affymetrix probe set 11748341_a_at): 2.60
Fold change, TPP1 (10 mg/ml, 24 h, vs control, Affymetrix probe set 11748342_x_at): 2.34
Fold change, EBP (10 mg/ml, 24 h, vs control, Affymetrix probe set 11749332_x_at): 2.48
Fold change, ABHD4 (10 mg/ml, 24 h, vs control, Affymetrix probe set 11749343_a_at): 2.28
Fold change, ABHD4 (10 mg/ml, 24 h, vs control, Affymetrix probe set 11749376_a_at): 2.13
Fold change, ME1 (10 mg/ml, 24 h, vs control, Affymetrix probe set 11750913_a_at): 2.67
Fold change, GBA (10 mg/ml, 24 h, vs control, Affymetrix probe set 11750975_x_at): 2.34
Fold change, GBA///GBAP1 (10 mg/ml, 24 h, vs control, Affymetrix probe set 11751085_a_at): 2.84
Fold change, GBA (10 mg/ml, 24 h, vs control, Affymetrix probe set 11751086_x_at): 2.57
Fold change, GBA///GBAP1 (10 mg/ml, 24 h, vs control, Affymetrix probe set 11751098_a_at): 2.57
Fold change, DHCR24 (10 mg/ml, 24 h, vs control, Affymetrix probe set 11751337_a_at): 2.29
Fold change, DHCR24 (10 mg/ml, 24 h, vs control, Affymetrix probe set 11751338_x_at): 2.44
Fold change, G6PD (10 mg/ml, 24 h, vs control, Affymetrix probe set 11752486_a_at): 3.18

Reference: patent publication US20220267380A1, “Glycopeptides Increasing Lipid Synthesis” (TFCHEM, priority 2019, published 2022)
